The source of these data is ChEMBL document CHEMBL1201862, “PubChem BioAssay data set” (2004).

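Protocol summary: plate cells (96-well), add compound at 5 concentrations, incubate 48 h, interpolate endpoints linearly. GI50 is the concentration that inhibits growth by half.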 Calls of active or inactive are those of the source. No stated cut-off is given here; in the data, active = GI50 up to about 1.1 µM and inactive = higher.

What all share (experiment): NCI tumour cell line growth inhibition, 48 h
Assay [1] concerns A549.
For assay [2], the system named is BT-549.
The subject of assay [3] is COLO 205.
Assay [4] deals with HCC 2998.
The test system of assay [5] is HCT-116.
Assay [6] deals with HCT-15.
Assay [7] deals with HOP-62.
Assay [8] has as its system KM12.
Assay [9] concerns MCF7.
The subject of assay [10] is MOLT-4.
The subject of assay [11] is NCI-H23.
The subject of assay [12] is NCI-H460.
Assay [13] relates to OVCAR-8.
Assay [14] deals with SF-268.
Assay [15] concerns SK-MEL-28.
Assay [16] concerns SK-MEL-5.
Assay [17] relates to SN12C.
The subject of assay [18] is U-251.
For assay [19], the system named is Malme-3M.

On to `c1ccc2sc(C3(N4CCCC4)CCCCCC3)cc2c1`, for which the GI50 is 19.6 µM (inactive) in [1]; 21.4 µM (inactive) in assay [2]; 14 µM (inactive) in assay [3]; 13.6 µM (inactive) in assay [4]; 12.5 µM (inactive) in [5]; 17.5 µM in [6]. Further, the GI50 was 18.5 µM (inactive) in assay [7]; 12.9 µM (inactive) in [8]; 18.4 µM (inactive) in assay [9]; 12.5 µM (inactive) in assay [10]; 18 µM (inactive) in [11]; 13.3 µM (inactive) in assay [12]. Further, the GI50 in assay [13] was 17.9 µM (inactive); in assay [14] it was 13.5 µM (inactive); in assay [15] it was 20.4 µM (inactive); in assay [16] it was 16.6 µM (inactive); in [17], 15.3 µM (inactive); in [18], 17.2 µM (inactive).
Take `COc1cc(C2SC(=N)Nc3c2c(C)nn3C(=O)c2ccccc2O)cc(OC)c1OC` (stereo not given): the GI50 in assay [1] was 4.24 µM (inactive); in [2] it was > 10 µM (inactive); in assay [3], > 10 µM (inactive); in [5], 1.59 µM (inactive); in assay [6] it was 4.31 µM; in [7], 6.15 µM (inactive). Besides, the GI50 in [8] was 8.3 µM (inactive); in [9], > 10 µM (inactive); in assay [10] it was 4 µM (inactive); in [19], > 10 µM (inactive); in assay [11], 8.3 µM (inactive); in [12], 7.41 µM (inactive). Also, the GI50 in assay [13] is > 10 µM (inactive); in assay [14] it was 6.71 µM (inactive); in [15] it was > 10 µM (inactive); in [16], 3.78 µM (inactive); in assay [17] it was 9.18 µM (inactive); in assay [18], 6.76 µM (inactive).
On to `C[C@H](C/C=C/C(C)(C)O)[C@H]1CC[C@@]2(C)[C@@H]3CC[C@H]4C(C)(C)[C@@H](O)CC[C@@]45C[C@@]35CC[C@]12C`, for which the GI50 in [1] is 14.7 µM (inactive); in assay [2], 34.1 µM (inactive); in assay [5] it was 18.2 µM (inactive); in assay [6], 17.1 µM; in assay [7], 13.6 µM (inactive); in assay [8] it was 24.7 µM (inactive). In addition, the GI50 in assay [9] is 35.2 µM (inactive); in [10], 9.91 µM (inactive); in assay [12] it was 23 µM (inactive); in assay [13], 14.8 µM (inactive); in [14] it was 1.94 µM (inactive); in assay [15], 18.8 µM (inactive). For the same molecule, the GI50 was 13 µM (inactive) in [17] and 17.4 µM (inactive) in assay [18].
Take `CC1(C)OCC2OC3([C@H](O)CCO)OC(C)(C)OC3C2O1` (stereo not given in full): the GI50 in assay [1] is > 100 µM (inactive); in [2], > 100 µM (inactive); in assay [3], > 100 µM (inactive); in assay [4], > 100 µM (inactive); in [5], > 100 µM (inactive); in assay [6] it was above 100 µM. The GI50 in assay [7], in assay [8], in [9], in assay [10], in assay [11] and in assay [12] was > 100 µM (inactive) throughout. For the same molecule, the GI50 in assay [13], in assay [15], in [16], in assay [17] and in [18] was > 100 µM (inactive) throughout.
As for `c1cncc(CNc2ncn[nH]2)c1`, the GI50 in [1] is > 100 µM (inactive); in assay [2], > 100 µM (inactive); in assay [3], > 100 µM (inactive); in assay [5], > 100 µM (inactive); in assay [6] it was above 100 µM; in assay [7], > 100 µM (inactive). The GI50 in [8], in assay [9], in [10], in assay [19], in [11] and in assay [12] was > 100 µM (inactive) in each case. Further, the GI50 in [13], in assay [14], in assay [15], in [16], in assay [17] and in assay [18] was > 100 µM (inactive) in each case.
With `CCOC(=O)c1[nH]c2nc(SC)nc(Nc3ccccc3Cl)c2c1N`, the GI50 in assay [1] is 13.2 µM (inactive); in assay [2], 20 µM (inactive); in assay [3] it was 28.9 µM (inactive); in [4], 27.4 µM (inactive); in [5] it was 15.6 µM (inactive); in assay [6], 35.3 µM. Moreover, the GI50 in [7] is 18.3 µM (inactive); in assay [8], 31.3 µM (inactive); in assay [10], 8.55 µM (inactive); in assay [19] it was 24.3 µM (inactive); in assay [11], 19.2 µM (inactive); in assay [12], 11.6 µM (inactive). Further, the GI50 was 16 µM (inactive) in assay [13]; 19.8 µM (inactive) in assay [14]; 31.3 µM (inactive) in assay [15]; 6.21 µM (inactive) in assay [16]; 36.2 µM (inactive) in [17]; 13.9 µM (inactive) in [18].
Turning to `CC(C)Oc1c(C2(c3ccccc3O)SCCCS2)c(=O)c1=O`, the GI50 is > 100 µM (inactive) in assay [1]; 42.5 µM (inactive) in [2]; > 100 µM (inactive) in [3]; > 100 µM (inactive) in assay [5]; above 100 µM in assay [6]; > 100 µM (inactive) in assay [7]. Moreover, the GI50 was 51.5 µM (inactive) in [8]; > 100 µM (inactive) in [9]; 57.5 µM (inactive) in assay [10]; 89.3 µM (inactive) in assay [11]; > 100 µM (inactive) in assay [12]; > 100 µM (inactive) in assay [13]. Also, the GI50 in assay [14], in assay [15], in assay [16], in assay [17] and in assay [18] was > 100 µM (inactive) throughout.
As to `CCOC(CNc1nn2c(C)nnc2s1)OCC`, the GI50 in assay [1] was > 100 µM (inactive); in assay [3] it was > 100 µM (inactive); in assay [4] it was > 100 µM (inactive); in [5], > 100 µM (inactive); in assay [6], above 100 µM; in [7], > 100 µM (inactive). The GI50 in assay [8], in [9], in [10], in assay [19], in assay [11] and in assay [12] was > 100 µM (inactive) throughout. Also, the GI50 in assay [13], in [14], in assay [15], in assay [16], in assay [17] and in [18] was > 100 µM (inactive) in each case.
With `COc1ccc(Cc2coc3ccccc3c2=O)cc1OC`, the GI50 is > 100 µM (inactive) in assay [1]; 38 µM (inactive) in assay [2]; > 100 µM (inactive) in assay [3]; 45.7 µM (inactive) in assay [5]; 31.8 µM in assay [6]; 56.1 µM (inactive) in assay [7]. Moreover, the GI50 in assay [9] was 46.2 µM (inactive); in assay [10] it was 49.3 µM (inactive); in [19] it was > 100 µM (inactive); in assay [11] it was 28.3 µM (inactive); in assay [12], 68.1 µM (inactive); in assay [13], > 100 µM (inactive). Besides, the GI50 in [14] is > 100 µM (inactive); in [15] it was > 100 µM (inactive); in [16], 21.3 µM (inactive); in [17] it was > 100 µM (inactive); in assay [18] it was 72.1 µM (inactive).
`CC1(C)S[C@@H]2[C@H](NC(=O)[C@H](N)c3ccccc3)C(=O)N2[C@H]1C(=O)O` [AMPICILLIN]: the GI50 in [1] was > 100 µM (inactive); in assay [2] it was > 100 µM (inactive); in [3], > 100 µM (inactive); in [4], > 100 µM (inactive); in assay [5], > 100 µM (inactive); in assay [6], above 100 µM. Also, the GI50 in [7], in assay [8], in assay [9], in [10], in assay [11] and in assay [12] was > 100 µM (inactive) each time. Besides, the GI50 in assay [13], in assay [14], in assay [15], in [16], in [17] and in [18] was > 100 µM (inactive) throughout.
For `C/C=C(C)/C=C/CC(C)CCC=C(C)C` (stereo not given), the GI50 in assay [1] is > 100 µM (inactive); in assay [2], > 100 µM (inactive); in [3], > 100 µM (inactive); in assay [5] it was > 100 µM (inactive); in [6], above 100 µM; in assay [8], > 100 µM (inactive). For the same molecule, the GI50 in assay [9], in [10], in [12], in assay [13], in assay [15] and in assay [16] was > 100 µM (inactive) each time. Further, the GI50 in [17] and in assay [18] was > 100 µM (inactive) in each case.
With `C=C1CC(c2ccc(OCCCN3C(=O)c4ccccc4C3=O)cc2)OC1=O` (stereo not given), the GI50 in [1] was 16 µM (inactive); in [3] it was 1.91 µM (inactive); in assay [4] it was 3.78 µM (inactive); in assay [5], 1.8 µM (inactive); in assay [6], 2.36 µM; in [7], 16.4 µM (inactive). The GI50 in assay [8] was 3.83 µM (inactive); in assay [9], 1.42 µM (inactive); in [10], 1.52 µM (inactive); in [19] it was 2.54 µM (inactive); in assay [11] it was 2.35 µM (inactive); in assay [12], 2.07 µM (inactive). Further, the GI50 in assay [13] was 2.71 µM (inactive); in assay [14], 4.32 µM (inactive); in [15], 1.81 µM (inactive); in assay [16], 6.64 µM (inactive); in assay [17] it was 3.31 µM (inactive); in assay [18], 4 µM (inactive).
